From patent US9227971B2, “Pyrazolo[1,5-a]pyrimidine compounds as mTOR inhibitors” (Merck Sharp & Dohme Corp., priority 2010, dated 2016)
Read-outs that look alike come from different tables or passages of the source.

Tests used:
[1] = test system: phosphorylated 4E-BP1 Thr37/46 (p4E-BP1 Thr37/46), mTORC1 activity, PC3 cells; assay: mTOR target engagement assay, immunofluorescent cell-based, p4E-BP1 Thr37/46 readout (mTORC1 activity); conditions: Homo sapiens, read-out: p4E-BP1 Thr37/46 IC50
How it was run: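 Read-out is fluorescence intensity of immunostained p4E-BP1 Thr37/46 in fixed PC3 cells, fitted to a logistic curve for IC50 with DMSO-only wells as top. Cells had been exposed to serial compound dilutions for ninety minutes at 37° C in 5% FBS medium with 0.25% DMSO.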

[2] = test system: phosphorylated AKT Ser473 (pAKT S473), mTORC2 activity, PC3 cells; assay: mTOR target engagement assay, immunofluorescent cell-based, pAKT S473 readout (mTORC2 activity); conditions: Homo sapiens
How it was run: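 After blocking, cells were stained overnight at 4 °C with anti-pAKT S473 antibody, then a fluorescent secondary; inhibition was read as reduced fluorescence intensity.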

[3] = PC-3, PC3 cells, compound treatment ninety minutes at 37° C.

SMILES | IC50 [1, 3] | IC50 [2, 3] | further results
Nc1c(C2CC2)c(C2CC3CCC(C2)N3C(=O)c2nnc(O)[nH]2)nc2c(-c3ccc(-c4ccccc4)nc3)cnn12 [Compound 8.106, ((1R,3s,5S)-3-(7-amino-6-cyclopropyl-3-(6-phenylpyridin-3-yl)pyrazolo[1,5-a]pyrimidin-5-yl)-8-azabicyclo[3.2.1]octan-8-yl)(5-hydroxy-4H-1,2,4-triazol-3-yl)methanone] |  |  | IC50 ([1]; PC-3, PC3 cells): 1 to 100 nM; IC50 ([2]; PC-3, PC3 cells): 1 to 100 nM
CS(=O)(=O)c1c([C@@H]2C[C@H]3CC[C@@H](C2)N3C(=O)c2nnc[nH]2)nc2c(-c3ccc(-c4ccc(C(F)(F)F)cc4F)nc3)cnn2c1N [Compound 3.110, ((1R,3s,5S)-3-(7-amino-3-(6-(2-fluoro-4-(trifluoromethyl)phenyl)pyridin-3-yl)-6-(methylsulfonyl)pyrazolo[1,5-a]pyrimidin-5-yl)-8-azabicyclo[3.2.1]octan-8-yl)(4H-1,2,4-triazol-3-yl)methanone] |  |  | IC50 ([1]; PC-3, Table 3-1, PC3 cells): 1000 to 10000 nM; IC50 ([2]; PC-3, Table 3-1, PC3 cells): 100 to 1000 nM
CS(=O)(=O)c1c(C2CC3COCC(C2)N3C(=O)C2(O)CC2)nc2c(-c3ccc(-c4ccccc4)nc3)cnn2c1N (single isomer, unassigned) [Compound 8.32, (7-(7-amino-6-(methylsulfonyl)-3-(6-phenylpyridin-3-yl)pyrazolo[1,5-a]pyrimidin-5-yl)-3-oxa-9-azabicyclo[3.3.1]nonan-9-yl)(1-hydroxycyclopropyl)methanone] |  |  | IC50 ([1]; PC-3, PC3 cells): 100 to 1000 nM; IC50 ([2]; PC-3, PC3 cells): 1 to 100 nM
Cn1cnc(-c2ccc(-c3cnn4c(N)cc([C@@H]5C[C@H]6CC[C@@H](C5)N6C(=O)c5nnc[nH]5)nc34)cn2)n1 [Compound 2.10, ((1R,3s,5S)-3-(7-amino-3-(6-(1-methyl-1H-1,2,4-triazol-3-yl)pyridin-3-yl)pyrazolo[1,5-a]pyrimidin-5-yl)-8-azabicyclo[3.2.1]octan-8-yl)(4H-1,2,4-triazol-3-yl)methanone] | > 10000 nM | > 10000 nM | 
CC(=O)c1c([C@@H]2C[C@H]3CC[C@@H](C2)N3C(=O)c2nnc[nH]2)nc2c(-c3ccc([C@H](C)O)cc3)cnn2c1N [Compound 7.22, 1-(5-((1R,3s,5S)-8-(4H-1,2,4-triazole-3-carbonyl)-8-azabicyclo[3.2.1]octan-3-yl)-7-amino-3-(4-((S)-1-hydroxyethyl)phenyl)pyrazolo[1,5-a]pyrimidin-6-yl)ethanone] | 1 to 100 nM | 1 to 100 nM | 
CC(=O)c1c(C2CC3CCC(C2)N3C(=O)c2nnc[nH]2)nc2c(-c3ccc(-c4ccccc4)nc3)cnn2c1N [Compound 1.1.7, 1-(5-((1R,3s,5S)-8-(1H-1,2,4-triazole-3-carbonyl)-8-azabicyclo[3.2.1]octan-3-yl)-7-amino-3-(6-phenylpyridin-3-yl)pyrazolo[1,5-a]pyrimidin-6-yl)ethanone] | 1 to 100 nM | 1 to 100 nM | 
CC(=O)c1c(C2CC3CCC(C2)N3C(=O)c2nnc(C)[nH]2)nc2c(-c3ccc(-c4ccccc4)nc3)cnn2c1N [Compound 1.1.22, 1-(7-amino-5-((1R,3s,5S)-8-(3-methyl-1H-1,2,4-triazole-5-carbonyl)-8-azabicyclo[3.2.1]octan-3-yl)-3-(6-phenylpyridin-3-yl)pyrazolo[1,5-a]pyrimidin-6-yl)ethanone] | 1 to 100 nM | 1 to 100 nM | 
CS(=O)(=O)c1c([C@@H]2C[C@H]3CC[C@@H](C2)N3C(=O)CO)nc2c(-c3ccc(-c4ncc[nH]4)cc3)cnn2c1N [Compound 6.35, 1-((1R,3s,5S)-3-(3-(4-(1H-imidazol-2-yl)phenyl)-7-amino-6-(methylsulfonyl)pyrazolo [1,5-a]pyrimidin-5-yl)-8-azabicyclo[3.2.1]octan-8-yl)-2-hydroxyethanone] |  |  | IC50 ([1]; PC-3, Table 6-1, PC3 cells): 100 to 1000 nM; IC50 ([2]; PC-3, Table 6-1, PC3 cells): 1 to 100 nM
Nc1cc([C@@H]2C[C@H]3CC[C@@H](C2)N3C(=O)[C@@H]2CCCN2)nc2c(-c3ccc(-c4ccccc4)nc3)cnn12 [Compound 2.20] | 1000 to 10000 nM | 1000 to 10000 nM | 
NC(=O)N1[C@@H]2CC[C@H]1C[C@H](c1nc3c(-c4ccc(-c5ncc[nH]5)nc4)cnn3c(N)c1C1CC1)C2 [Compound 6.31, (1R,3s,5S)-3-(3-(6-(1H-imidazol-2-yl)pyridin-3-yl)-7-amino-6-cyclopropylpyrazolo [1,5-a]pyrimidin-5-yl)-8-azabicyclo[3.2.1]octane-8-carboxamide] |  |  | IC50 ([1]; PC-3, Table 6-1, PC3 cells): 1 to 100 nM; IC50 ([2]; PC-3, Table 6-1, PC3 cells): 1 to 100 nM
CN1CCN(c2nnc(C(=O)N3C4CCC3CC(c3nc5c(-c6ccc(-c7ccccc7)nc6)cnn5c(N)c3C3CC3)C4)[nH]2)CC1 [Compound 8.102, ((1R,3s,5S)-3-(7-amino-6-cyclopropyl-3-(6-phenylpyridin-3-yl)pyrazolo[1,5-a]pyrimidin-5-yl)-8-azabicyclo[3.2.1]octan-8-yl)(5-(4-methylpiperazin-1-yl)-4H-1,2,4-triazol-3-yl)methanone] |  |  | IC50 ([1]; PC-3, PC3 cells): 1000 to 10000 nM; IC50 ([2]; PC-3, PC3 cells): 1000 to 10000 nM
CN(C)c1nnc(C(=O)N2[C@@H]3CC[C@H]2C[C@H](c2nc4c(-c5ccc(-c6ccccc6)nc5)cnn4c(N)c2S(C)(=O)=O)C3)[nH]1 [Compound 3.93, ((1R,3s,5S)-3-(7-amino-6-(methylsulfonyl)-3-(6-phenylpyridin-3-yl)pyrazolo[1,5-a]pyrimidin-5-yl)-8-azabicyclo[3.2.1]octan-8-yl)(5-(dimethylamino)-4H-1,2,4-triazol-3-yl)methanone] |  |  | IC50 ([1]; PC-3, Table 3-1, PC3 cells): 100 to 1000 nM; IC50 ([2]; PC-3, Table 3-1, PC3 cells): 100 to 1000 nM
COc1ccc(-c2ccc(-c3cnn4c(N)c(C5CC5)c([C@@H]5C[C@H]6CC[C@@H](C5)N6C(=O)c5nnc[nH]5)nc34)cn2)cc1F [Compound 4.9, ((1R,3s,5S)-3-(7-amino-6-cyclopropyl-3-(6-(3-fluoro-4-methoxyphenyl)pyridin-3-yl)pyrazolo[1,5-a]pyrimidin-5-yl)-8-azabicyclo[3.2.1]octan-8-yl)(4H-1,2,4-triazol-3-yl)methanone] | 100 to 1000 nM | 1 to 100 nM | 
NC(=O)N1[C@@H]2CC[C@H]1C[C@H](c1nc3c(-c4ccc(-c5ccccc5)nc4)cnn3c(N)c1C1CC1)C2 [Compound 4.6, (1R,3s,5S)-3-(7-amino-6-cyclopropyl-3-(6-phenylpyridin-3-yl)pyrazolo[1,5a]pyrimidin-5-yl)-8-azabicyclo[3.2.1]octane-8-carboxamide] | 1 to 100 nM | 1 to 100 nM | 
COc1ccc(-c2ccc(-c3cnn4c(N)c(Br)c([C@@H]5C[C@H]6CC[C@@H](C5)N6C(=O)c5nnc[nH]5)nc34)cn2)cc1F [Compound 2.4, ((1R,3s,5S)-3-(7-amino-6-bromo-3-(6-(3-fluoro-4-methoxyphenyl)pyridin-3-yl)pyrazolo[1,5-a]pyrimidin-5-yl)-8-azabicyclo[3.2.1]octan-8-yl)(4H-1,2,4-triazol-3-yl)methanone] | 100 to 1000 nM | 100 to 1000 nM | 
CC(=O)c1c([C@@H]2C[C@H]3CC[C@@H](C2)N3C(=O)c2cc(N)n[nH]2)nc2c(-c3ccc(-n4cc(C)cn4)nc3)cnn2c1N [Compound 1.1.132, 1-(7-amino-5-((1R,3s,5S)-8-(3-amino-1H-pyrazole-5-carbonyl)-8-azabicyclo[3.2.1]octan-3-yl)-3-(6-(4-methyl-1H-pyrazol-1-yl)pyridin-3-yl)pyrazolo[1,5-a]pyrimidin-6-yl)ethanone] | 1 to 100 nM | 1 to 100 nM | 
